According to PubChem BioAssay AID720513 (Broad Institute, 2013):
Inconclusive results are not listed.

Tested on: U2OS PGC1a acetylation AlphaLISA, overnight
Experiment: PGC1a acetylation increase, cellular AlphaLISA – cell-based, cherry-picked samples, set 6, dose response (AID 720513);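 also: cells made to overexpress flag tagged PGC1a plus GCN5 acetyltransferase by viral infection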

Point of comparison: O=C(Cc1ccccc1)N1CCN(C(=O)c2cccs2)CC1, AC40 10 µM. Against it:
- CCOC(=O)C1=CC[C@@H](c2ccc([N+](=O)[O-])cc2)N(S(=O)(=O)c2ccc(C)cc2)[C@H]1c1ccccc1 — 1.9-fold lower, 5.13 µM
- O=C(c1ccc(NC(=O)C2(c3ccccc3)CCOCC2)cc1)N1CCOCC1 — 1.7-fold higher, 16.6 µM
- CCOc1ccc(-c2nnn(CC#N)n2)cc1OC — 5.1-fold lower, 1.96 µM
- Cc1cc(Nc2cccc(Cl)c2)c2ccccc2n1 — within 1.5-fold, 6.94 µM
- Cc1cccc(Oc2nccc(C(F)(F)F)c2C(=O)Nc2ccc(F)cc2F)c1 — within 1.5-fold, 11.9 µM
- O=C(c1ccco1)N1CCN(c2nnc(-c3ccccc3)c3ccccc23)CC1 — 2.3-fold lower, 4.28 µM
- C[C@@H]1CN([C@H](C)CO)C(=O)c2cc(N(C)C)ccc2O[C@@H](C)CCCCO[C@H]1CN(C)C(=O)Nc1ccccc1 — within 1.5-fold, 10.6 µM
- COc1ccccc1-c1ccc2c(c1)C(C)(Cc1ccc(OC(F)(F)F)cc1)C(=O)N2 (centres undefined) — 4-fold lower, 2.47 µM
- Cc1ccc(S(=O)(=O)N2C[C@@H]3N[C@H](C2)[C@@H]3c2ccc(-c3cccc(C)c3)cc2)cc1 — 1.9-fold lower, 5.18 µM
- CC(=O)Nc1nonc1-c1nc2ccccc2n1Cc1ccccc1 — 2-fold lower, 4.88 µM
- OC(COc1ccc(CNCCc2ccc(C(F)(F)F)cc2)cc1)CN1CCCCC1 (centres undefined) — 11-fold lower, 0.9 µM
- CCOc1ccc2c(c1)C(C)=CC(C)(C)N2S(=O)(=O)c1ccc(C)cc1 — 13-fold lower, 0.781 µM
- O=C1CC(Sc2nnc(-c3ccccc3O)o2)C(=O)N1c1ccccc1 (centres undefined) — within 1.5-fold, 7.23 µM
